{"source": "patent US4699928A", "about": "“Fluoroallylamine derivatives” (Merrell Dow Pharmaceuticals Inc., priority 1986, dated 1987)", "key": {"[1]": {"tested_on": "MAO-A and MAO-B", "details": "cited from earlier work"}, "[2]": {"tested_on": "MAO-B versus MAO-A", "test": "Selectivity of inhibition of MAO-B versus MAO-A in vitro (14C phenethylamine / 14C 5-hydroxytryptamine)", "assay_type": "biochemical", "details": "rat, brain mitochondria", "procedure": "Mitochondria are prepared from rat brain by homogenation in phosphate buffer (0.1 M, pH 7.2) followed by differential centrifugation. The mitochondria are suspended in the same buffer, the test compound is added at the desired concentration, and the system is incubated. At different time intervals, aliquots are taken and MAO activity is measured using ^14 C p-tyramine (a mixed substrate) as the substrate (See A. Christmas et al., supra).\n(C) The selectivity of a compound of Formula I with respect to inhibition of MAO-A and MAO-B can be determined by repeating the procedure of Part B and measuring the MAO activity using ^14 C 5-hydroxytryptamine (a preferred substrate for MAO-A) and ^14 C phenethylamine (a preferred substrate for MAO-B) as the substrate."}, "[3]": {"tested_on": "MAO", "test": "Inhibition of MAO in vitro, partially purified rat brain mitochondria, 14C p-tyramine substrate", "assay_type": "biochemical", "details": "tested as hydrochloride salt", "excerpt": "Inhibition of MAO--In vitro testing\n(A) The ability of a compound of Formula I to inhibit MAO can be determined in vitro by the method of A. Christmas et al., Br. J. Pharmacol., 45, 490 (1972) in partially purified mitochondria from rat brain using ^14 C p-tyramine as the substrate. The MAO inhibitory activity of a compound is expressed as the \"IC50 \" value, which is the molar concentration required to produce 50% inhibition of the enzyme."}, "[4]": {"tested_on": "heart rate response to p-tyramine", "test": "Cheese effect: potentiation of response to intravenous p-tyramine, pithed rats", "assay_type": "in vivo, male Sprague-Dawley rats", "details": "p-tyramine i.v.", "procedure": "(§1) The following test procedures can be employed to assess the potential of a compound of Formula I for producing the \"cheese effect\": […]\n(§2) Eighteen hours later the animals are anaesthetized with pentobarbitone (60 mg/kg i.p.), in some instances pithed, and in all cases set up for recording heart rate and blood pressure by standard techniques."}, "[5]": {"tested_on": "depression", "details": "in vivo; cited from earlier work"}, "[6]": {"tested_on": "heart rate response to p-tyramine", "test": "Cheese effect: potentiation of response to intraduodenal p-tyramine, anaesthetized rats", "assay_type": "in vivo, male Sprague-Dawley rats", "details": "p-tyramine i.d.", "procedure": "as §1, §2"}, "[7]": {"details": "low dosages where preferential inhibition of MAO-B occurs; cited from earlier work"}, "[8]": {"tested_on": "MAO-A", "details": "cited from earlier work"}, "[9]": {"tested_on": "MAO-B", "details": "cited from earlier work"}}, "data": [{"compound": "N[C@@H]1C[C@H]1c1ccccc1", "note": "(relative stereo) [tranylcypromine]", "values": [{"measurement": "preference in action upon MAO", "setting": "[1]", "result": "not preferential"}]}, {"compound": "NC/C(=C\\F)CSc1ccccc1", "note": "[(E)-2-thiophenoxymethyl-3-fluoroallylamine]", "values": [{"measurement": "Ratio B:A (inhibitory activity against MAO-B versus MAO-A)", "setting": "[2]", "result": 100}]}, {"compound": "NC/C(=C/F)CSc1ccc(F)cc1", "note": "[(Z)-2-(4'-fluorothiophenoxy) methyl-3-fluoroallylamine]", "values": [{"measurement": "Ratio B:A (inhibitory activity against MAO-B versus MAO-A)", "setting": "[2]", "result": 100}]}, {"compound": "NC/C(=C/F)COc1ccccc1", "note": "[(Z)-2-phenoxymethyl-3-fluoroallylamine]", "values": [{"measurement": "IC50", "setting": "[3]", "result": 1000, "unit": "nM"}]}, {"compound": "NC/C(=C/F)CSc1ccccc1", "note": "[(Z)-2-thiophenoxymethyl-3-fluoroallylamine]", "values": [{"measurement": "IC50", "setting": "[3]", "result": 1000, "unit": "nM"}, {"measurement": "Ratio B:A (inhibitory activity against MAO-B versus MAO-A)", "setting": "[2]", "result": "1,000"}]}, {"compound": "C#CCN(C)[C@H](C)Cc1ccccc1", "note": "[L-deprenyl, reference compound]", "values": [{"measurement": "Potentiation of heart rate response to p-tyramine", "setting": "[4]; 0.1 mg/kg", "result": 1.3, "unit": "fold"}, {"measurement": "Potentiation of heart rate response to p-tyramine", "setting": "[4]; 1.0 mg/kg", "result": 2.2, "unit": "fold"}, {"measurement": "clinical antidepressant effect", "setting": "[5]", "result": "clinically effective antidepressant agents"}, {"measurement": "Potentiation of heart rate response to p-tyramine", "setting": "[6]; 0.1 mg/kg, in words", "result": "no effect"}, {"measurement": "Potentiation of heart rate response to p-tyramine", "setting": "[6]; 1.0 mg/kg", "result": 2.1, "unit": "fold"}, {"measurement": "cheese effect", "setting": "[7]", "result": "not observed"}]}, {"compound": "CNC/C(=C/F)COc1ccc(Cl)cc1Cl", "note": "[N-methyl (Z)-2-(2',4'-dichlorophenoxy)methyl-3-fluoroallylamine]", "values": [{"measurement": "Ratio B:A (inhibitory activity against MAO-B versus MAO-A)", "setting": "[2]", "result": 100}]}, {"compound": "C#CCN(C)CCCOc1ccc(Cl)cc1Cl", "note": "[clorgyline, reference compound]", "values": [{"measurement": "Potentiation of heart rate response to p-tyramine", "setting": "[4]; 0.1 mg/kg", "result": 5.2, "unit": "fold"}, {"measurement": "IC50", "setting": "[3]", "result": 10, "unit": "nM"}, {"measurement": "clinical antidepressant effect", "setting": "[5]", "result": "clinically effective antidepressant agents"}, {"measurement": "Potentiation of heart rate response to p-tyramine", "setting": "[6]; 0.1 mg/kg", "result": 5.6, "unit": "fold"}, {"measurement": "preferential inhibition of MAO-A", "setting": "[8]", "result": "MAO-A is preferentially inhibited"}]}, {"compound": "Cc1cc(C(=O)NNCc2ccccc2)no1", "note": "[isocarboxazid]", "values": [{"measurement": "preference in action upon MAO", "setting": "[1]", "result": "not preferential"}]}, {"compound": "C#CCN(C)Cc1ccccc1", "note": "[pargyline]", "values": [{"measurement": "dose-dependence of selectivity", "setting": "[1]; lower versus higher dosages", "result": "selective inhibitors at lower dosages, but are not selective inhibitors at higher dosages"}, {"measurement": "IC50", "setting": "[3]", "result": 2000, "unit": "nM"}, {"measurement": "clinical antidepressant effect", "setting": "[5]", "result": "clinically effective antidepressant agents"}, {"measurement": "preferential inhibition of MAO-B", "setting": "[9]", "result": "MAO-B is preferentially inhibited"}]}, {"compound": "NNCCc1ccccc1", "note": "[phenelzine]", "values": [{"measurement": "preference in action upon MAO", "setting": "[1]", "result": "not preferential"}]}]}
